These molecules were tested against Autotaxin (Homo sapiens, UniProt Q13822) (assay: Inhibitory Activity Assay: Two-fold dilution of each test compound solution (10 μM, 100% dimethyl sulfoxide) is carried out on 96-well V bottom plate (Costar 3363). After ten-fold dilution of each the test compound solution (100% dimethyl sulfoxide) with deionized distilled water, 10 μL of the diluted each mpound solution (10% dimethyl sulfoxide) was aliquoted to a black flat bottom 96-well plate (Costar 3915). 50 μL of 1.6× Assay solution (224 mM NaCl, 80 mM Tris-HCl (pH 8.0), 8 mM KCl, 1.6 mM CaCl2, 1.6 mM MgCl2, and 1.6 mg/mL fatty acid free BSA) was added thereto, and subsequently 20 μL of 20 nM human ENPP2 solution (buffer solution: 140 mM NaCl, 50 mM Tris-HCl (pH 8.0), 5 mM KCl, 1 mM CaCl2, 1 mM MgCl2, and 1 mg/mL fatty acid free BSA) and 20 μL of 5 μM FS-3 solution (buffer solution:deionized distilled water) were added thereto, respectively, followed by mixing.).
`O=C(Cn1cc(-c2cnc(NCc3cccc(OC(F)(F)F)c3)nc2)nn1)N1CCc2[nH]nnc2C1` showed an IC50 of 2.9 nM. In the case of `O=C(Cc1nc(-c2cnc(NC3Cc4ccccc4C3)nc2)no1)N1CCc2[nH]nnc2C1`, the IC50 is reported as 2.5 nM. With `O=C(NCCN1CCN(c2cnc(NC3Cc4ccccc4C3)nc2)CC1)c1ccc2[nH]c(=O)oc2c1` the IC50 was 2.9 nM. In the case of `NS(=O)(=O)NC1CCN(C(=O)Cc2nnc(-c3cnc(NC4Cc5ccccc5C4)nc3)o2)C1` (centres undefined), the IC50 is reported as 4.6 nM.
